Data published in patent US20150225369A1, “DDR2 INHIBITORS FOR THE TREATMENT OF OSTEOARTHRITIS” (Merck Patent GmbH, priority 2012, published 2015).
Like-named read-outs stand apart in the source and are kept apart here.

Legend:
[1] = molecular target: T1, His-tagged human recombinant DDR-2 kinase domain (His-TEV-DDR2 467-855 aa) (Homo sapiens, UniProt Q16832); experiment: Autophosphorylation assay for biochemical activity testing of DDR2 (HTRF)
T1 construct: His-TEV-DDR2 467-855 aa
T1 sequence (Q16832 467-855): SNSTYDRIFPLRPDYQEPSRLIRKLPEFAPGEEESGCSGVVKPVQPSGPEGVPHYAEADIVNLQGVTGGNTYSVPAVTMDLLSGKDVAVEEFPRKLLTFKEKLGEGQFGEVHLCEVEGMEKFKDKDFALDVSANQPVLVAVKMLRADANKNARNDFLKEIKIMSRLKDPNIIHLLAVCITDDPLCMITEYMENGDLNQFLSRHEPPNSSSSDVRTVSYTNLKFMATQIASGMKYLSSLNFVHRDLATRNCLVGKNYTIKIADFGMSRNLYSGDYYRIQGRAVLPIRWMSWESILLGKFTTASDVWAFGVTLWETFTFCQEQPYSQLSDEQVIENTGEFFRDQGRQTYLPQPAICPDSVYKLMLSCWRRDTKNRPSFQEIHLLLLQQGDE
How it was run: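 Phospho-tyrosine was detected by HTRF between XL665 anti-6His and cryptate anti-phosphotyrosine PT66 antibodies, using the emission ratio. Inhibition was referenced to the inhibitor-free reaction.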

[2] = molecular target: T2, HEK293 transfected with human DDR2 (Homo sapiens, UniProt Q16832); experiment: Phospho-DDR2 cellular assay (collagen II induced DDR2 phosphorylation, ELISA); assay type: cell-based; settings: read-out: IC50 [p-DDR2]
T2 construct: expressed in transfected cells; host or cells: HEK293 (PLT460F_(DDR2)-P7-1)
T2 sequence (Q16832 22-855): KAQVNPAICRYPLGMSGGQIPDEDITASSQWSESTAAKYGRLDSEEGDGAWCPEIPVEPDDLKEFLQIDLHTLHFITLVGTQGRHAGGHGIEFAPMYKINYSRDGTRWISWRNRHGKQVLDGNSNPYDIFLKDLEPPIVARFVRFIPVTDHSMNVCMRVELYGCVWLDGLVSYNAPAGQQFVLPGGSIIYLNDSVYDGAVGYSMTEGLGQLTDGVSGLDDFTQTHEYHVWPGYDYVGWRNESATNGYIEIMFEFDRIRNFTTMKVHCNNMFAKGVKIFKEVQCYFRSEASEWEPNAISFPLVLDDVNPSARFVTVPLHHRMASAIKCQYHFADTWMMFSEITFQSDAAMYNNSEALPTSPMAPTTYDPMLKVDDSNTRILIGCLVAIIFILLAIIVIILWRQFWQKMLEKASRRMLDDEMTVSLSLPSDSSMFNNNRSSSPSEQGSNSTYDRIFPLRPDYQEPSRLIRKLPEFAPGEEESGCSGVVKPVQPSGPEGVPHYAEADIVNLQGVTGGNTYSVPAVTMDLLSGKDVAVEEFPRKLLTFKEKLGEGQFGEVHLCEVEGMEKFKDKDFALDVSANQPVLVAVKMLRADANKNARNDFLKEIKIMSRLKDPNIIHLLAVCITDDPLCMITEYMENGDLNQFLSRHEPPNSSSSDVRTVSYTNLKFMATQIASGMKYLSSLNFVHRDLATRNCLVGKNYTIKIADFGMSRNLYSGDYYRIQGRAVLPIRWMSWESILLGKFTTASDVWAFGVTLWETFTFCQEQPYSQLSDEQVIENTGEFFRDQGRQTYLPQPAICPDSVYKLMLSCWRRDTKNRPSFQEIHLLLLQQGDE
Protocol: Assays were performed in a 384 well plate format, using cell line HEK293 transfected with human DDR2 (PLT460F_(DDR2)-P7-1)
Cells were seeded at a density of 10'000 cells/well in 384well poly-D-lysine coated Black/clear plate (Cellcoat Greiner) and incubated in DMEM medium in the presence of 10% fetal bovine serum at 37° C., 5% CO2 for 48 h. Medium was replaced by serum-free medium and cells were incubated at 37° C., 5% CO2 for 8 h. Compound to be tested in 5% DMSO or 5% DMSO and 50 μg/ml of chicken collagen II were added and cells were incubated at 37° C., 5% CO2 for 16 h
Cells were rinsed with ice-cold PBS, lysed with lysis buffer (M-PER Thermo #78501) for 30 min at room temperature and centrifuged for 1 min at 1000 RPM. In parallel, White High binding 384 well plates (Corning) were coated with mouse anti-human DDR2 capture antibody (R&D Systems kit DuoSet IC Human phospho-DDR2 ELISA), overnight at RT.
An aliquot of cell lysate was transferred to the coated plates and incubated for 2 h at RT. Plates were washed and mouse anti-phospho-tyrosine detection antibody (R&D Systems kit DuoSet IC Human phospho-DDR2 ELISA) conjugated to horse radish peroxidase (HRP) was added for 2 h at RT. Plates were washed and chemiluminescent substrate for HRP (Thermo) was added for 15 min at RT. Luminescence was measured on a luminometer.

[3] = 4 nM DDR2 kinase domain, 150 μM ATP, 150 min at 22° C.
[4] = HEK293 transfected with human DDR2, 50 μg/ml chicken collagen II, 16 h

IC50 [1, 3] | IC50 [2, 4] | IC50 ([2]; cellular phospho-DDR2) | Structure (SMILES) | further results
400 nM | 5600 nM |  | Cn1cc(C(F)(F)F)cc(NC(=O)NCc2ccc(Oc3ccnc4ccc(C(F)(F)F)cc34)cc2)c1=O [compound 2] | 
62 nM | 110 nM |  | COc1ccc(C(F)(F)F)cc1NC(=O)Nc1ccc(Cc2nc3cc[nH]c(=O)c3[nH]2)cc1 [compound 3] | 
66 nM | 20 nM |  | Cn1cc(C(F)(F)F)cc(NC(=O)NCc2ccc(Oc3ccnc4[nH]ccc34)cc2)c1=O [compound 3] | 
420 nM | 270 nM |  | CNC(=O)c1cc(Oc2ccc(COC(=O)Nc3ccc(Cl)c(C(F)(F)F)c3)cc2)ccn1 [compound 6] | 
 |  | 14 nM | CNC(=O)c1cc(Oc2ccc(CNC(=O)Nc3cc(Cl)ccc3OC)cc2)ccn1 [compound 19] | IC50 ([1]; biochemical DDR2 autophosphorylation): 30 nM
410 nM | 87 nM |  | CNC(=O)c1cc(Oc2ccc(CNC(=O)Nc3cc(C)cnc3Cl)cc2C)ccn1 [compound 25] | 
190 nM | 42 nM |  | COc1ncc(Cl)cc1NC(=O)NCc1ccc(Oc2ccnc(C)c2)cc1 [compound 27] | 
350 nM | 94 nM |  | Cc1cc(Oc2ccc(CNC(=O)Nc3cc(C(F)(F)F)cnc3Cl)cc2)ccn1 [compound 29] | 
 |  | 45 nM | CNC(=O)c1cc(Oc2ccc(CNC(=O)Nc3cc(C(F)(F)F)ccc3CNC(C)=O)cc2C)ccn1 [compound 214, 4-(4-{3-[2-(Acetylamino-methyl)-5-trifluoromethyl-phenyl]-ureidomethyl}-2-methyl-phenoxy)-pyridine-2-carboxylic acid methylamide] | 
 |  | 180 nM | CNC(=O)c1cc(Oc2ccc(CNC(=O)Nc3cc(C(F)(F)F)ccc3CN)cc2C)ccn1 [compound 221, 4-{4-[3-(2-Aminomethyl-5-trifluoromethyl-phenyl)-ureidomethyl]-2-methyl-phenoxy}-pyridine-2-carboxylic acid methylamide] | 
 |  | 8800 nM | CNC(=O)c1cc(Oc2ccc(CNC(=O)Nc3ccc(N4CCOCC4=O)c(Cl)c3)cc2)ccn1 [compound 225, 4-(4-{3-[3-Chloro-4-(3-oxo-morpholin-4-yl)-phenyl]-ureidomethyl}-phenoxy)-pyridine-2-carboxylic acid methylamide] | 
 |  | 1500 nM | CNC(=O)c1cc(Oc2ccc(CNC(=O)Nc3cccc(N(C)C)c3)cc2)ccn1 [compound 228, 4-{4-[3-(3-Dimethylamino-phenyl)-ureidomethyl]-phenoxy}-pyridine-2-carboxylic acid methylamide] | 
 |  | 27 nM | CNC(=O)c1cc(Oc2ccc(CNC(=O)Nc3cc(C(F)(F)F)ccc3-n3cncn3)cc2F)ccn1 [compound 235, 4-{2-Fluoro-4-[3-(2-[1,2,4]triazol-1-yl-5-trifluoromethyl-phenyl)-ureidomethyl]-phenoxy}-pyridine-2-carboxylic acid methylamide] | 
 |  | 2900 nM | CNC(=O)c1cc(Oc2ccc(CNC(=O)Nc3cc(C(F)(F)F)ccc3-n3ccnc3)cc2C)ccn1 [compound 240, 4-{4-[3-(2-Imidazol-1-yl-5-trifluoromethyl-phenyl)-ureidomethyl]-2-methyl-phenoxy}-pyridine-2-carboxylic acid methylamide] | 

The next lines start with the compound.

Structure (SMILES) | IC50 [1, 3] | IC50 [2, 4] | IC50 ([2]; cellular phospho-DDR2) | further results
O=C(Nc1ccc(Cc2nc3cc[nH]c(=O)c3[nH]2)cc1)Nc1cccc(C(F)(F)F)c1 [compound 4] | 25 nM | 320 nM |  | 
CNC(=O)c1cc(Oc2ccc(CNC(=O)Nc3cc(C)cnc3OC)cc2C)ccn1 [compound 20] | 110 nM | 41 nM |  | 
CNC(=O)c1cc(Oc2ccc(CNC(=O)Nc3cc(C(F)(F)F)cnc3Cl)cc2)ccn1 [compound 24] | 130 nM | 58 nM |  | 
CNC(=O)c1cc(Oc2ccc(CNC(=O)Nc3cc(C(F)(F)F)ccc3CN3CCNCC3=O)cc2)ccn1 [compound 208, 4-(4-{3-[2-(2-Oxo-piperazin-1-ylmethyl)-5-trifluoromethyl-phenyl]-ureidomethyl}-phenoxy)-pyridine-2-carboxylic acid methylamide] |  |  | 855 nM | 
CNC(=O)c1cc(Oc2ccc(CNC(=O)Nc3cc(C(F)(F)F)ccc3CC(N)=O)cc2)ccn1 [compound 209, 4-{4-[3-(2-Carbamoylmethyl-5-trifluoromethyl-phenyl)-ureidomethyl]-phenoxy}-pyridine-2-carboxylic acid methylamide] |  |  | 985 nM | 
CNC(=O)c1cc(Oc2ccc(CNC(=O)Nc3cc(C)c(Cl)cc3-n3cccc3)cc2)ccn1 [compound 219, 4-{4-[3-(4-Chloro-5-methyl-2-pyrrol-1-yl-phenyl)-ureidomethyl]-phenoxy}-pyridine-2-carboxylic acid methylamide] |  |  | 114 nM | 
CNC(=O)c1cc(Oc2ccc(CNC(=O)Nc3cc(C(F)(F)F)ccc3CC(=O)O)cc2C)ccn1 [compound 220, (2-{3-[3-Methyl-4-(2-methylcarbamoyl-pyridin-4-yloxy)-benzyl]-ureido}-4-trifluoromethyl-phenyl)-acetic acid] |  |  | 23500 nM | 
CNC(=O)c1cc(Oc2ccc(CNC(=O)Nc3nnc(C(F)(F)F)s3)cc2)ccn1 [compound 222, 4-{4-[3-(5-Trifluoromethyl-[1,3,4]thiadiazol-2-yl)-ureidomethyl]-phenoxy}-pyridine-2-carboxylic acid methylamide] |  |  | 575 nM | 
CNC(=O)c1cc(Oc2ccc(CNC(=O)Nc3cc(C(C)(C)C)n[nH]3)cc2)ccn1 [compound 223, 4-{4-[3-(5-tert-Butyl-2H-pyrazol-3-yl)-ureidomethyl]-phenoxy}-pyridine-2-carboxylic acid methylamide] |  |  | 7950 nM | 
CNC(=O)c1cc(Oc2ccc(CNC(=O)Nc3cccc(C(F)(F)F)c3)cc2F)ccn1 [compound 233, 4-{2-Fluoro-4-[3-(3-trifluoromethyl-phenyl)-ureidomethyl]-phenoxy}-pyridine-2-carboxylic acid methylamide] |  |  | 27 nM | 
CNC(=O)c1cc(Oc2ccc(CNC(=O)Nc3ccc(C)c(Cl)c3)cc2F)ccn1 [compound 234, 4-{4-[3-(3-Chloro-4-methyl-phenyl)-ureidomethyl]-2-fluoro-phenoxy}-pyridine-2-carboxylic acid methylamide] |  |  | 72 nM | 
CNC(=O)c1cc(Oc2ccc(CNC(=O)Nc3cc(C)on3)cc2)ccn1 [compound 236, 4-{4-[3-(5-Methyl-isoxazol-3-yl)-ureidomethyl]-phenoxy}-pyridine-2-carboxylic acid methylamide] |  |  | 2050 nM | 
CNC(=O)c1cc(Oc2ccc(CNC(=O)Nc3ccc(NC(C)=O)c(C(F)(F)F)c3)cc2)ccn1 [compound 241, 4-{4-[3-(4-Acetylamino-3-trifluoromethyl-phenyl)-ureidomethyl]-phenoxy}-pyridine-2-carboxylic acid methylamide] |  |  | 710 nM | 
CNC(=O)c1cc(Oc2ccc(CNC(=O)Nc3cc(C(F)(F)F)ccc3-n3ccnc3)cc2)ccn1 [compound 243, 4-{4-[3-(2-Imidazol-1-yl-5-trifluoromethyl-phenyl)-ureidomethyl]-phenoxy}-pyridine-2-carboxylic acid methylamide] |  |  | 9400 nM | 
